Laboratory results reported in a melting point compilation (Tetko et al.; mined from patent text by program, amines drawn as free bases though some values may be those of a salt).

melting point [°C] | Structure (SMILES)
169 to 170 | NC(=NO)c1c(F)ccc(OCc2nc3cc(Cl)ccc3s2)c1F
121 to 123 | O=c1c2cc(Cl)ccc2nc2n1CCCC2=Cc1ccccc1
130 to 131 | CCOC(=O)CNc1ncccc1NC(=O)c1ccc(OC)cc1
158 to 160 | Cc1c(C)c(C)c(S(=O)(=O)NCCc2ccc(C(=CCCCC(=O)O)c3cccnc3)cc2)c(C)c1C
186 to 189 | CC(C)OC(=O)c1cc(-n2c(=O)[nH]c3c(c2=O)CCC3)c(Cl)cc1Cl
305 | CS(=O)(=O)c1cccc(NC(=O)c2cnn3c(C(F)(F)F)cc(-c4ccc(Cl)cc4)nc23)c1
225 to 226 | Cn1c(COc2ccc(CC3SC(=O)NC3=O)cc2)nc2ccc(Oc3ccc(NS(C)(=O)=O)cc3)cc21 (configuration not stated)
128 to 131 | CC(C)OC(=O)N[C@H]1CC[C@H](CCN2CCN(c3cccc(Cl)c3Cl)CC2)CC1
114 to 116 | N#CCC(=O)NC(C(=O)OC1CCCCC1)c1ccccc1 (configuration not stated)
162 to 164 | CC(O)(c1ccc(C#N)cc1)c1cncs1 (configuration not stated)
92 to 93 | COc1ccc2c(cc3n2CCCO3)n1
143 to 145 | CCC(=O)c1ccc(O)c(CNC(=O)CCl)c1
160 to 161 | COc1cc(COc2nn(Cc3ccccc3)cc2C(N)=O)ccc1OCc1nc(-c2ccco2)oc1C
278 to 279 | CC(C)(C(=O)c1ccccc1OCC(=O)O)N1CCN(c2ccncc2)CC1
231 to 235 | COC(=O)Nc1cn2cc(S(=O)c3ccccn3)ccc2n1 (configuration not stated)
132 to 136 | C[C@]1(CN2CCC(OCc3ccc(Cl)c(Cl)c3)CC2)Cn2cc([N+](=O)[O-])nc2O1
295 to 296 | Cc1[nH]c(=O)[nH]c1C(=O)c1ccncc1
152 to 154 | CC=NNC1=NCCc2ccccc21
112 to 114 | COCCN(CCOC)c1ccc(Nn2c(C)ccc2C)nn1
128 to 130 | CCOC(=O)c1ccc2n1Cc1ccccc1N1CCN(C)CC21 (configuration not stated)
198 to 199 | COc1ccc(Oc2cccc(-c3nnc(Nc4ccc(Cl)c(Cl)c4)s3)c2)cc1
72 to 76 | Cc1cc([N+](=O)[O-])c(Cl)nc1C
166 to 168 | CCOC(=O)c1c(C)oc2cc(N(C(C)=O)S(C)(=O)=O)c(Oc3ccccc3)cc2c1=O
100 to 104 | C=CCCCCCCCCC(=O)N1CCN(c2cc(N)nc(N)n2)CC1

melting point [°C] | Structure (SMILES)
252 to 255 | O=C(NCC1CCCCC1)c1c(Cl)ccc2nc(N3CCC(c4nnn[nH]4)CC3)ccc12
138 to 144 | O=C(O)C1CC1(C(=O)O)c1ccc([N+](=O)[O-])cc1 (configuration not stated)
137 to 145 | C=CC[C@H](C(N)=O)[C@@H](CC(C)C)C(=O)NC1C(=O)N(C)c2ccccc2-c2ccccc21 (some centres not stated)
73 to 76 | CC(=O)CCCCCNC(=O)Nc1ccccc1CCc1cc(C(C)(C)C)c(O)c(C(C)(C)C)c1
100 to 101 | NC(=O)CCSSCCC(N)=O
189 to 192 | O=c1c(CCCCCCCc2ccncc2)cc2cccnc2n1-c1cccc([N+](=O)[O-])c1
126 to 127 | C=C(c1ccc(Br)cc1)c1ccc(N(C)C)cc1
156 to 168 | Nc1nc2c(ncn2CCC(CO)COC(=O)c2ccccc2)c(=O)[nH]1 (configuration not stated)
126 to 127 | Cc1oc(-c2ccccc2)nc1COc1ccc(OCc2ccccc2)cc1
130 to 132 | C[C@@H](O)C(=O)NC[C@H]1CCc2ccc(S(=O)(=O)c3ccccc3)cc2O1
246 to 247 | CCCN1C(=O)N2CCN=C2c2c1nc(C1CCCC1)n2C
178 to 180 | CN1CCN(CC(=O)N2CC=C(c3cccc(C(F)(F)F)c3)n3ncc(C#N)c32)CC1
286 to 288 | O=C(O)C1CC1c1cc(=O)c2ccc3ccccc3c2o1 (configuration not stated)
155 to 158 | O=S(=O)(CCO)Nc1cc(C(c2cc(F)ccc2F)S(=O)(=O)c2ccc(Cl)cc2)c(Cl)cn1 (configuration not stated)
91 to 93 | CCC(=O)NC(Cc1ccccc1)c1ccccn1 (configuration not stated)
192 to 193 | CC(=O)Nc1nc(CCc2ccc(NC(=O)OC(C)(C)C)cc2)c(C(=O)NCc2ccc(S(C)(=O)=O)cc2)s1
243 to 244 | O=C(Nc1ccncc1)c1c(OCC2CC2)ccc2oc3ccccc3c12
190 to 192 | CCCCN(CCCC)c1ccc(C=CC=CC2=C(C#N)C(=C(C#N)C#N)OC2(c2ccccc2)C(F)(F)F)c(OC)c1 (configuration not stated)
221 to 227 | CSc1nc(-c2ccccn2)n(-c2ccc(F)cc2)c(=O)c1C#N
190 to 191 | CCNc1nc2c(C)sc(C(=O)OC)c2n1Cc1ccc(-c2ccccc2C#N)cc1
199 to 201 | Nc1cc2c(cc1[N+](=O)[O-])OCO2
77 to 78 | CN1C(=O)O[C@@H](c2ccc(F)cc2)[C@H]1Cc1ccc(C(F)(F)F)cc1 (racemic)
85 to 87 | COC(=O)c1[nH]c(C)c(C)c1OCC1CO1 (configuration not stated)

Second part, the compound before the results:

Structure (SMILES) | melting point [°C]
CCN1c2ncccc2C(=O)N(C)c2ccc(-c3ccn(C)c3)nc21 | 187 to 188
COc1ccc(S(=O)(=O)Nc2cccc3c2Nc2ccc(F)c(O)c2CO3)cc1 | 219 to 232
C=CCN1CC(C)N(C(c2cccc(O)c2)c2cccc(C#N)c2)CC1C (configuration not stated) | 169 to 171
CN1CC(CCC#N)Oc2ncccc2C1=S (configuration not stated) | 155 to 156
O=C(OCc1ccccc1)c1ccc2cc(-c3ccc(C(O)CO)c(C45CC6CC(CC(C6)C4)C5)c3)ccc2c1 (configuration not stated) | 193
CN1CCC(=C2c3ccsc3C(=O)Cn3ccnc32)CC1 | 153
Cc1c(C#N)c(-c2ccc(C#N)cc2)c(C)n1Cc1ccc(Cl)c(C(O)C(F)(F)F)c1 (configuration not stated) | 196 to 198
Cc1oc(C2=NOC(c3cc(Cl)cc(Cl)c3)(C(F)(F)F)C2)cc1C(=O)NCC(=O)NCC(F)(F)F (configuration not stated) | 172 to 174
O=C(Nc1cccnc1)c1cc2ccnc(Cl)c2[nH]1 | > 320
COc1ccc(N2CCN(c3ccc(OC)nc3-c3ccc(N(C)C)cc3)C(C)C2)cc1 (configuration not stated) | 140 to 148
Oc1ccc(F)c2c1C[C@@H](N(C1CCC1)C1CCC1)CO2 | 170 to 172
CC(=O)N(C)[C@H]1CCN(C(=O)c2ccc(-c3[nH]nc4c3C(=O)c3c(NC(=O)NN5CCOCC5)cccc3-4)s2)C1 | > 300
Clc1ccc2nc(CN3CCN(c4ncccn4)CC3)cn2c1 | 114 to 115
CCOC(=O)c1cn(CCc2ccc(O)cc2)c2cc(C3CC3)nn2c1=O | 95 to 100
N#Cc1cccc2c1C(=O)C(O)=C(O)C2=O | 305 to 312
COC(=O)CC1CCc2cc(C(=O)c3ccccc3)c(O)cc21 (configuration not stated) | 148 to 150
S=c1nc(-c2ccc(Cl)c(Cl)c2)[nH]n1Cc1ccccc1 | 227 to 228
CSCc1sccc1S(=O)(=O)N(C)c1cccc2cc(-c3nccs3)[nH]c12 | 213
CCOC(=O)C(=O)Nc1ccc(NC(=O)C(=O)OCC)cc1 | 214 to 217
COc1ccc(-c2cc(C(N)=O)c(=O)n(CC3CC3)n2)cc1 | 182 to 183
COC(=O)c1sc2ccc(C#N)cc2c1N | 248
CCCC1=C([N+](=O)[O-])C(c2ccccc2[N+](=O)[O-])c2c[nH]nc2N1 (configuration not stated) | 204
Cc1ccc(-c2ccc3c(c2)C=C(CNc2ccc(CN(C)C4CCOCC4)cc2)CCO3)cc1 | 158 to 160
CN1CCN(Cc2cccc(-c3ccc(-c4cn([C@H]5CN6CCC5CC6)nn4)s3)c2)CC1 | 155
CC(CC(C(=O)N(C)C)(c1ccccc1)c1ccccc1)N1CCC(NC(=O)c2cccc(C(F)(F)F)c2)C(O)C1 (configuration not stated) | 141

Structure (SMILES) | melting point [°C]
O=C(O)[C@@H]1Cc2c(ncn2Cc2ccccc2)CN1C(=O)C(c1ccc(Cl)cc1)c1ccc(Cl)cc1 | 162 to 170
CC1C(=O)Oc2cc(C3CCCCC3)ccc21 (configuration not stated) | 87 to 89
Oc1cc(Br)c2oc(-c3cc(F)c(O)c(F)c3)nc2c1 | 270 to 272
CC(=O)N(c1cccc(Br)c1)c1ncnc2ccc(N3C(=O)C=CC3=O)cc12 | 174 to 175
CCOC(Cc1ccc(OCCN2c3ccccc3Oc3ccccc32)cc1)C(=O)OC (configuration not stated) | 88 to 90
CCN1CCCC1CNC(=O)c1cc(S(=O)(=O)N(C)C)cc2c1OCCO2 (configuration not stated) | 146 to 148
CCOC12CC(C=C(C#N)COC)=CC=C1OCO2 (configuration not stated) | 64 to 65
CC1(C)CCC(C)(C)c2cc(CCCC(=O)O)ccc21 | 99
O=C(NC(O)C(=O)O)OCc1ccccc1 (configuration not stated) | 194 to 198
C(=C1CCNCC1)c1ccc(C2=NCCO2)cc1 | 110
N#Cc1cccc(C2=Nc3cc(O)c(-c4ccc(F)cc4)cc3NC(=O)C2)c1 | > 250
O=C(OCc1ccccc1)c1ncn2c1[C@@H]1CCCN1C(=O)c1c(Cl)cccc1-2 | 141 to 142
COc1cc2[nH]c(=O)sc2cc1OC | 192 to 193
CN1c2ccccc2C(c2ccccc2Cl)=Nc2cccnc21 | 132 to 133
CC(C)c1nc(C(C)C)c(CCc2ccccc2)c(-c2ccc(F)cc2)c1CO | 158 to 159
O=C1c2ccccc2C(=O)N1OCc1cc(Cl)c2c(c1Cl)OC(c1ccccc1)(c1ccccc1)O2 | 127 to 129
O=C(Nc1cccnc1Nc1ccc(CCNC[C@H](O)COc2ccc(O)cc2)cc1)c1ccccc1 | 97 to 99
NS(=O)(=O)c1ccc(N2CCN(Cc3cn4ccccc4n3)CC2)cc1 | 238 to 242
Cc1nc(N)sc1S(=O)(=O)N1CCC(O)C1 (racemic) | 165
CCCCCCCN(CCO)c1cccc(O)c1 | 45 to 47
COc1ccc(S(=O)(=O)N2C(=O)[C@@](c3ccccc3OC)(N3C[C@H](OC(=O)CCC(=O)O)C[C@H]3C(=O)N(C)C)c3cc(Cl)ccc32)c(OC)c1 | 225 to 228
CC(=O)OC1CSC(Oc2cncc(-c3ccc(F)cc3C)c2)C(OC(C)=O)C1OC(C)=O (configuration not stated) | 120
COc1cc(CN(C)c2ncnc3c(N4CCOCC4)nc(N4CCC(N(C)C)CC4)nc23)cc2ccccc12 | 130
CC(C)=NOCc1nc2c(N)nc3cccnc3c2n1CC(C)(C)O | 198 to 200
Cc1cccc(N2CCN(Cc3ccc4c(c3)NCCN4)CC2)c1 | 135 to 136
